Usually pIC50 stands for −log10 of the IC50, conventionally taken in molar units. Read a high pIC50 as a small IC50.

We go through 52 molecules from patent publication US10919885B2, “Compounds and uses thereof” (Yumanity Therapeutics, Inc., priority 2018, dated 2021).

The target of one test is human SCD1 (Homo sapiens (Human), UniProt O00767). Nature of the test: Yeast growth assay, strain expressing human SCD1 as the sole desaturase (reduced growth as surrogate for SCD inhibition). Particulars: yeast with OLE1 deleted expressing human SCD1 from a plasmid; growth read as OD600 after 40 h at 30° C.; top drug concentration 33.3 μM. Format: cell-based. In outline: (§1)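 Yeast lacking OLE1 depend on plasmid-borne human SCD1 or SCD5 and are tested in SD-Ura medium without oleic/palmitoleic acid or Tween.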

A further test has as its target human SCD5 (Homo sapiens (Human), UniProt Q86SK9). Nature of the test: Yeast growth assay, strain expressing human SCD5 as the sole desaturase (reduced growth as surrogate for SCD inhibition). Particulars: yeast with OLE1 deleted expressing human SCD5 from a plasmid; growth read as OD600 after 40 h at 30° C.; top drug concentration 33.3 μM. The test is classed as cell-based. In outline: as §1

pIC50: −log10 of the molar value.

Chain of human SCD1 (O00767 whole entry): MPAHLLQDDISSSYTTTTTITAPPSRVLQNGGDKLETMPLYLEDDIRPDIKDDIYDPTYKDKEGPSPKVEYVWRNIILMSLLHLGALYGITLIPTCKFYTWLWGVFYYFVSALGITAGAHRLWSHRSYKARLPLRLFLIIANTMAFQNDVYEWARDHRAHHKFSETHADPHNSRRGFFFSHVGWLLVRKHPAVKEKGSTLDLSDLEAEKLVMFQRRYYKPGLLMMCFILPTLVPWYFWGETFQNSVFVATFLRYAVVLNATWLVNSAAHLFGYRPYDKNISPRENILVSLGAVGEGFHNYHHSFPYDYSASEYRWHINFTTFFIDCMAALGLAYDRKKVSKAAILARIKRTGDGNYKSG
Chain of human SCD5 (Q86SK9 whole entry): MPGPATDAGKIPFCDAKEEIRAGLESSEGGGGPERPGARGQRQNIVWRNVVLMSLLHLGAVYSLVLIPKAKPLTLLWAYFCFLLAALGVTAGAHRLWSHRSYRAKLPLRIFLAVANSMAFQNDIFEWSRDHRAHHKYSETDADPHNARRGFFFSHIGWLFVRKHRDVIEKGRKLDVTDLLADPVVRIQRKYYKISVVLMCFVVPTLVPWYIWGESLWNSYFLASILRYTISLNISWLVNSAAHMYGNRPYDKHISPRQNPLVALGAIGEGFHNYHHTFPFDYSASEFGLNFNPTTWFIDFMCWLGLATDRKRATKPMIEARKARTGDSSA

With `O=C(c1cc(-c2ccc3c(c2)OCO3)on1)N1CC(O)C[C@H]1c1ccccc1` (some centres unmarked) [Compound 414], the pIC50 on human SCD1 was 4.52; against human SCD5, under 4.35.

Regarding `O=C(NC1CCN(c2ccccc2)CC1)c1cc(-c2ccco2)on1` [Compound 286], the pIC50 against human SCD1 and against human SCD5 was under 4.35 throughout.

Turning to `Cc1nnc(-c2cc(C(=O)Nc3cnn(Cc4cccc(F)c4)c3)no2)o1` [Compound 179], the pIC50 against human SCD1 and against human SCD5 was under 4.35 throughout.

With `O=C(Nc1cnn(CC2CCOCC2)c1)c1cc(-c2ccco2)on1` [Compound 31], the negative-log IC50 (pIC50) at human SCD1 and at human SCD5 was under 4.35 each time.

For `O=C(c1cc(-c2ccccc2)on1)N1CCN(c2cc(F)ccc2Cl)CC1` [Compound 297, (4-(2-chloro-5-fluorophenyl)piperazin-1-yl)(5-phenylisoxazol-3-yl)methanone], the pIC50 against human SCD1 is 4.72; on human SCD5, 5.25.

On to `O=C(c1cc(-c2ccc3c(c2)OCO3)on1)N1CCCC1c1ncccn1` (centres unmarked) [Compound 431], for which the pIC50 on human SCD1 and on human SCD5 was under 4.35 in each case.

Turning to `O=C(Nc1cnn(Cc2ccccc2)c1)c1cc(-c2ccccc2)no1` [Compound 123], the pIC50 against human SCD1 and against human SCD5 was under 4.35 throughout.

On to `Cc1c(NC(=O)c2cc(-c3ccco3)on2)cnn1Cc1ccc(Cl)c(Cl)c1` [Compound 21], for which the pIC50 on human SCD1 and against human SCD5 was under 4.35 in each case.

For the molecule `O=C(Nc1cnn(Cc2cccc(F)c2)c1)c1cc(-c2ncccc2F)on1` [Compound 108, N-(1-(3-fluorobenzyl)-1H-pyrazol-4-yl)-5-(3-fluoropyridin-2-yl)isoxazole-3-carboxamide], the pIC50 against human SCD1 was 5.92; on human SCD5, 5.74.

For the molecule `Cc1cc(C2CCCN2C(=O)c2cc(-c3ccco3)on2)on1` (centres unmarked) [Compound 357], the pIC50 on human SCD1 and against human SCD5 was under 4.35 throughout.

As to `COc1ccc(C2CCCN2C(=O)c2cc(-c3ccc(OC)c(F)c3)on2)cc1` (centres unmarked) [Compound 382], the figures for the pIC50 on human SCD1 and against human SCD5 were 4.36 and under 4.35, respectively.

Take `N#Cc1cccc(-c2cc(C(=O)Nc3cnn(Cc4ccccc4)c3)no2)c1` [Compound 127]: the results for the pIC50 against human SCD1 and at human SCD5 were 5.34 and under 4.35, respectively.

As to `O=C(c1cc(-c2ccc3c(c2)OCO3)on1)N1CCCC1c1cccnc1` (centres unmarked) [Compound 362], the pIC50 against human SCD1 and against human SCD5 was under 4.35 in each case.

Take `O=C(c1cc(-c2ccncc2)on1)N1CCC[C@H]1c1ccccc1` [Compound 409]: the values for the negative logarithm of the IC50 (pIC50) against human SCD1 and against human SCD5 were 4.64 and under 4.35, respectively.

As for `Cn1cccc(-c2cc(C(=O)Nc3cnn(Cc4cccc(F)c4)c3)no2)c1=O` [Compound 89], the values for the pIC50 at human SCD1 and against human SCD5 were 4.92 and under 4.35, respectively.

On to `Cc1nn(Cc2ccc(Cl)c(Cl)c2)c(C)c1NC(=O)c1cc(-c2ccco2)on1` [Compound 3, N-(1-(3,4-dichlorobenzyl)-3,5-dimethyl-1H-pyrazol-4-yl)-5-(furan-2-yl)isoxazole-3-carboxamide], for which the pIC50 on human SCD1 was under 4.35; against human SCD5 it was 5.15.

Turning to `N#Cc1cc(C(=O)Nc2cnn(Cc3cccc(F)c3)c2)no1` [Compound 169], the pIC50 against human SCD1 and at human SCD5 was under 4.35 in each case.

Turning to `CNC(=O)c1ccc(-c2cc(C(=O)N3CC(Cc4ccccc4)C3)no2)cc1` [Compound 230], the pIC50 on human SCD1 and against human SCD5 was under 4.35 throughout.

In the case of `O=C(Nc1cnn(Cc2ccccc2)c1)c1cc(-c2ccc(F)cn2)on1` [Compound 137], the pIC50 against human SCD1 and against human SCD5 was under 4.35 each time.

Turning to `O=C(Nc1cnn(Cc2cccnc2)c1)c1cc(-c2ccccc2)on1` [Compound 39], the pIC50 against human SCD1 and at human SCD5 was under 4.35 in each case.

For `O=C(Nc1cnn(Cc2cccc(F)c2)c1)c1cc(-c2cccnc2)on1` [Compound 55], the figures for the pIC50 on human SCD1 and at human SCD5 were 6.23 and under 4.35, respectively.

Consider `CNC(=O)c1cc(C(=O)Nc2cnn(Cc3cccc(F)c3)c2)no1` [Compound 87], for which the pIC50 was 4.82 against human SCD1 and under 4.35 against human SCD5.

Regarding `O=C(Nc1cnn(Cc2cccc(F)c2)c1)c1cc(-c2cnccn2)on1` [Compound 45], the negative logarithm of the IC50 (pIC50) on human SCD1 was 4.64; against human SCD5 it was under 4.35.

`O=C(c1cc(-c2ccc3c(c2)OCO3)on1)N1CCC1c1ccccc1F` (centres unmarked) [Compound 218]: the pIC50 against human SCD1 and at human SCD5 was under 4.35 throughout.

Regarding `O=C(Nc1cnn(Cc2ccccc2)c1)c1cc(-c2cccc3cn(C4COC4)nc23)on1` [Compound 95], the pIC50 against human SCD1 and on human SCD5 was under 4.35 in each case.

Take `O=C(Nc1cnn(Cc2ccccc2)c1)c1cc(-c2cncs2)no1` [Compound 131]: the pIC50 against human SCD1 and against human SCD5 was under 4.35 throughout.

For `O=C(c1cc(-c2cccnc2)on1)N1CC(c2ccccc2)C1` [Compound 234, (3-phenylazetidin-1-yl)(5-(pyridin-3-yl)isoxazol-3-yl)methanone, trifluoroacetic acid], the pIC50 was 4.81 against human SCD1 and 5.29 against human SCD5.

Take `C[S+]([O-])CCC(c1ccccc1)n1cc(NC(=O)c2cc(-c3ccccc3)on2)cn1` (centres unmarked) [Compound 71]: the pIC50 against human SCD1 and on human SCD5 was under 4.35 each time.

On to `O=C(c1cc(-c2ccncn2)on1)N1CC(c2ccccc2)C1` [Compound 257, (3-phenylazetidin-1-yl)(5-(pyrimidin-4-yl)isoxazol-3-yl)methanone], for which the pIC50 at human SCD1 was 6.49; against human SCD5 it was 5.50.

For the molecule `O=C(c1cc(-c2ccc3c(c2)OCO3)on1)N1CC(Nc2ccccc2)C1` [Compound 221], the negative-log IC50 (pIC50) against human SCD1 and at human SCD5 was under 4.35 in each case.

With `O=C(c1cc(-c2ccccc2)on1)N1CC2(CC(c3ccccc3)C2)C1` [Compound 227, (6-phenyl-2-azaspiro[3.3]heptan-2-yl)-(5-phenylisoxazol-3-yl)methanone], the pIC50 against human SCD1 was under 4.35; against human SCD5, 5.05.

Regarding `COc1cccnc1C1CCCN1C(=O)c1cc(-c2ccc3c(c2)OCO3)on1` (centres unmarked) [Compound 437], the pIC50 at human SCD1 and against human SCD5 was under 4.35 in each case.

Consider `O=C(c1cc(-c2ccc3c(c2)OCO3)on1)N1CCC(c2ccccc2)C1` (centres unmarked) [Compound 329], for which the negative-log IC50 (pIC50) at human SCD1 and at human SCD5 was under 4.35 each time.

`CNC(=O)c1cc(C(=O)N2CCC(c3ccccc3)C2)no1` (centres unmarked) [Compound 347]: the pIC50 is 5.38 against human SCD1 and 5.28 on human SCD5.

`O=C(c1cc(-c2ccccc2)on1)N1CCN(c2cccc(F)c2)CC1` [Compound 294]: the pIC50 was 6.68 against human SCD1 and under 4.35 against human SCD5.

Regarding `O=C(c1cc(-c2ccc3c(c2)OCO3)on1)N1Cc2ccccc2C1` [Compound 328], the pIC50 at human SCD1 and on human SCD5 was under 4.35 each time.

For `CC1(c2ccccc2)CCN(C(=O)c2cc(-c3ccc4c(c3)OCO4)on2)CC1` [Compound 290, 1-[5-(2H-1,3-benzodioxol-5-yl)-1,2-oxazole-3-carbonyl]-4-methyl-4-phenylpiperidine], the pIC50 against human SCD1 was under 4.35; against human SCD5 it was 5.53.

Consider `O=C(Nc1cnn(Cc2ccccc2Cl)c1)c1cc(-c2cccc3cn(C4COC4)nc23)on1` [Compound 92], for which the pIC50 on human SCD1 and against human SCD5 was under 4.35 each time.

As for `C=C(C)c1cc(C(=O)Nc2cnn(Cc3cc(F)ccc3C(F)(F)F)c2)no1` [Compound 84], the pIC50 against human SCD1 and against human SCD5 was under 4.35 each time.

`N#Cc1ccc(-c2cc(C(=O)Nc3cnn(Cc4cc(F)ccc4C(F)(F)F)c3)no2)nc1` [Compound 99]: the pIC50 against human SCD1 and against human SCD5 was under 4.35 in each case.

Turning to `O=C(Nc1cc(-c2ccco2)on1)c1cnn(Cc2ccc(Cl)c(Cl)c2)c1` [Compound 59], the pIC50 against human SCD1 and on human SCD5 was under 4.35 each time.

As to `N#Cc1cc(F)cc(Cn2cc(NC(=O)c3cc(-c4ccccc4)on3)cn2)c1` [Compound 98], the pIC50 against human SCD1 and on human SCD5 was under 4.35 throughout.

On to `C[S+]([O-])CC(c1ccccc1)n1cc(NC(=O)c2cc(-c3ccccc3)on2)cn1` (centres unmarked) [Compound 78], for which the pIC50 on human SCD1 and against human SCD5 was under 4.35 each time.

As to `O=C(c1cc(-c2ccc3c(c2)OCO3)on1)N1COCC1c1ccccc1` (centres unmarked) [Compound 406], the pIC50 against human SCD1 and at human SCD5 was under 4.35 in each case.

`Cc1nn(Cc2ccc(Cl)c(Cl)c2)cc1NC(=O)c1cc(-c2ccco2)on1` [Compound 17, N-(1-(3,4-dichlorobenzyl)-3-methyl-1H-pyrazol-4-yl)-5-(furan-2-yl)isoxazole-3-carboxamide]: the pIC50 against human SCD1 was under 4.35; on human SCD5, 5.31.

Turning to `Cc1nn(C)c2cc(-c3cc(C(=O)N4CCCC4c4ccnnc4)no3)ccc12` (centres unmarked) [Compound 458], the pIC50 against human SCD1 and against human SCD5 was under 4.35 each time.

Turning to `CC(C)c1cc(C(=O)Nc2cnn(CC34CCC(CC3)CC4)c2)no1` [Compound 167], the pIC50 against human SCD1 and against human SCD5 was under 4.35 throughout.

Regarding `O=C(Nc1cnn(Cc2cccc(F)c2)c1)c1cc(-c2ccccc2)on1` [Compound 53], the pIC50 at human SCD1 was 7.15; on human SCD5 it was under 4.35.

For `O=C(c1cc(-c2ccc3nccnc3c2)on1)N1CCC[C@H]1c1ccccc1` [Compound 450], the negative-log IC50 (pIC50) against human SCD1 and against human SCD5 was under 4.35 each time.

`CN(C(=O)c1cc(-c2ccccc2)on1)c1cnn(Cc2cc(F)ccc2C(F)(F)F)c1` [Compound 76]: the pIC50 against human SCD1 and on human SCD5 was under 4.35 throughout.

With `CC(C)(C)OC(=O)N1CC2(C1)CN(C(=O)c1cc(-c3ccccc3)on1)C2` [Compound 344], the pIC50 on human SCD1 and against human SCD5 was under 4.35 throughout.

On to `COc1cc(C2CCCN2C(=O)c2cc(-c3ccc4c(c3)OCO4)on2)on1` (centres unmarked) [Compound 411], for which the figures for the pIC50 at human SCD1 and against human SCD5 were 4.52 and under 4.35, respectively.
